The values that follow come from patent US10770169B2, “Method of providing a treatment to a subject based on a dynamic pathway map” (THE REGENTS OF THE UNIVERSITY OF CALIFORNIA, priority 2010, dated 2020).

In experiment [1] the test system is panel of 55 breast cancer cell lines. Briefly: Cell growth inhibition assay (Cell Titer Glo, 72 h, 9 doses; GI50, TGI, LC50). It counts as cell-based, human. The following applies: value is the negative log10 of mol/L.
The test system of experiment [2] is luminal, basal, claudin-low and ERBB2AMP breast cancer cell lines. Briefly: Associations of clinically relevant subtypes and response (non-parametric ANOVA or t-test on GI50 ranks). Type of experiment: cell-based, human. The following applies: for Subtype specificity: Table 6, most sensitive subtype, FDR p<0.20; for subtype-specific response (sensitivity by transcriptional subtype): GI50 across subtypes. An excerpt: A central premise of this study is that associations between responses and molecular subtypes observed in preclinical cell line analyses will be recapitulated in the clinic in instances where the predictive molecular features in the cell lines are mirrored in human tumors. We established response-subtype associations by using non-parametric ANOVAs to compare […] values across transcriptional and genomics subtypes.
Differences between GI50s of the groups were compared with a non-parametric ANOVA or t-test, as appropriate, on the ranks. We combined the p-values for the three sets of tests and used false discovery rate (FDR) to correct for multiple testing. For the three-sample test, we performed a post-hoc analysis on the compounds with a significant class effect by comparing each group to all others to determine which group was most sensitive. The p-values for the post-hoc test were FDR-corrected together. In all cases, FDR p<0.20 was deemed significant. […] Analyses were performed in R.

Where [3] appears, read: AU565 cell line, censored GI50 values.
[4] abbreviates: BT474 cell line, censored GI50 values.
The mark [5] stands for this setting: BT483 cell line, censored GI50 values.
[6] abbreviates: CAMA1 cell line, censored GI50 values.
The mark [7] stands for this setting: HCC1395 cell line, censored GI50 values.
Setting [8] is: HCC1419 cell line, censored GI50 values.
Where [9] appears, read: HCC1500 cell line, censored GI50 values.
Setting [10] is: HCC1806 cell line, censored GI50 values.
[11] abbreviates: HCC1937 cell line, censored GI50 values.
Setting [12] is: HCC1954 cell line, censored GI50 values.

Entries after “also recorded” stand apart in the source; their conditions may differ.

Consider `COc1cc2ncnc(Nc3cccc(Cl)c3)c2cc1OC` [AG1478], for which the GI50 in experiment [1] (600MPE cell line, censored GI50 values) came to 3.99; in experiment [1] (setting [3]), 4.57; in experiment [1] (setting [4]), 6.17; in experiment [1] (setting [5]), 5.64; in experiment [1] (BT549 cell line, censored GI50 values) it was 4.41; in experiment [1] (setting [6]), 4.46. In addition, the GI50 was found to be 4.03 in experiment [1] (HCC38 cell line, censored GI50 values); 5.75 in experiment [1] (HCC202 cell line, censored GI50 values); 4.57 in experiment [1] (setting [7]); 5.92 in experiment [1] (setting [8]); 4.58 in experiment [1] (setting [9]); 4.07 in experiment [1] (setting [10]). Further, the GI50 in experiment [1] (setting [11]) amounted to 4.88; in experiment [1] (setting [12]), 5.64; in experiment [1] (HCC2185 cell line, censored GI50 values) it was 4.33; in experiment [1] (MDAMB134VI cell line, censored GI50 values) it was 4.00; in experiment [1] (MDAMB157 cell line, censored GI50 values), 4.47; in experiment [1] (MDAMB175VII cell line, censored GI50 values), 6.19. The GI50 stood at 4.71 in experiment [1] (MDAMB361 cell line, censored GI50 values); 3.99 in experiment [1] (MDAMB436 cell line, censored GI50 values); 4.02 in experiment [1] (MDAMB468 cell line, censored GI50 values); 4.92 in experiment [1] (SKBR3 cell line, censored GI50 values); 5.74 in experiment [1] (SUM149PT cell line, censored GI50 values); 4.77 in experiment [1] (SUM159PT cell line, censored GI50 values). Further, the GI50 in experiment [1] (SUM1315MO2 cell line, censored GI50 values) amounted to 5.60; in experiment [1] (T47D cell line, censored GI50 values), 4.74; in experiment [1] (UACC893 cell line, censored GI50 values) it was 5.65; in experiment [1] (cell line 600MPE), 3.99; in experiment [1] (cell line AU565), 4.57; in experiment [1] (cell line BT474), 6.17. The GI50 was 5.64 in experiment [1] (cell line BT483); 4.41 in experiment [1] (cell line BT549); 4.46 in experiment [1] (cell line CAMA1); 4.03 in experiment [1] (cell line HCC38); 3.94 in experiment [1] (cell line HCC70); 5.75 in experiment [1] (cell line HCC202). Also, the GI50 in experiment [1] (cell line HCC1143) was found to be 3.78; in experiment [1] (cell line HCC1187) it was 3.78; in experiment [1] (cell line HCC1395), 4.57; in experiment [1] (cell line HCC1419), 5.92; in experiment [1] (cell line HCC1428) it was 3.78; in experiment [1] (cell line HCC1500), 4.58. Besides, the GI50 in experiment [1] (cell line HCC1806) is on record as 4.07; in experiment [1] (cell line HCC1937) it was 4.88; in experiment [1] (cell line HCC1954), 5.64; in experiment [1] (cell line HCC2185) it was 4.33; in experiment [1] (cell line LY2) it was 3.78; in experiment [1] (cell line MDAMB134V), 4.00. Besides, the GI50 stood at 4.47 in experiment [1] (cell line MDAMB157); 6.19 in experiment [1] (cell line MDAMB175V); 4.71 in experiment [1] (cell line MDAMB361); 3.78 in experiment [1] (cell line MDAMB415); 3.99 in experiment [1] (cell line MDAMB436); 3.78 in experiment [1] (cell line MDAMB453). The GI50 in experiment [1] (cell line MDAMB468) was 4.02; in experiment [1] (cell line SKBR3) it was 4.92; in experiment [1] (cell line SUM52PE), 3.78; in experiment [1] (cell line SUM149PT), 5.74; in experiment [1] (cell line SUM159PT), 4.77; in experiment [1] (cell line SUM185PE), 3.78. Further, the GI50 is reported as 5.60 in experiment [1] (cell line SUM1315MO); 4.74 in experiment [1] (cell line T47D); 5.65 in experiment [1] (cell line UACC893); 3.78 in experiment [1] (cell line ZR75B); 3.78 in experiment [1] (cell line ZR751). Also, the “association of response with ERBB2 amplification” value in experiment [2] is reported as “positively associated with ERBB2 amplification”. Also, in experiment [2], the Subtype specificity result is recorded as “ERBB2AMP”.
Take `N.N.[Cl][Pt][Cl]` [Cisplatin]: in experiment [2], the “subtype-specific response (sensitivity by transcriptional subtype)” value is “preferential activity in basal and/or claudin-low cell lines; also recorded: basal cell lines are preferentially sensitive; also recorded: Basal breast cancer cell lines preferentially respond” and the Subtype specificity result is recorded as “Basal”.
With `C[C@@H](Oc1cc(-n2cnc3ccc(CN4CCN(C)CC4)cc32)sc1C(N)=O)c1ccccc1C(F)(F)F` [GSK461364], in experiment [2], the “subtype-specific response (sensitivity by transcriptional subtype)” value is “more active against basal and claudin-low cell lines”; the Subtype specificity result was “Basal + Claudin-low”.
As for `O=C1NC(=O)/C(=C/c2ccc3nccc(-c4ccncc4)c3c2)S1` [GSK1059615], the Subtype specificity entry in experiment [2] was “Luminal/ERBB2AMP”.
On the same count and under the same terms, in the case of `COc1ncc(-c2ccc3nccc(-c4ccnnc4)c3c2)cc1NS(=O)(=O)c1ccc(F)cc1F` [GSK2126458] it was “Luminal/ERBB2AMP”; in that of `O=C(CCCCCCC(=O)Nc1ccccc1)NO` [Vorinostat], “Luminal”.
As to Oxamflatin, the GI50 stood at 6.19 in experiment [1] (setting [3]); 6.57 in experiment [1] (setting [4]); 6.15 in experiment [1] (setting [5]); 6.27 in experiment [1] (setting [6]); 6.28 in experiment [1] (HCC1143 cell line, censored GI50 values); 6.19 in experiment [1] (HCC1187 cell line, censored GI50 values). The GI50 in experiment [1] (setting [7]) was found to be 5.64; in experiment [1] (setting [8]), 5.88; in experiment [1] (HCC1428 cell line, censored GI50 values), 6.33; in experiment [1] (setting [9]), 5.98; in experiment [1] (setting [10]) it was 6.16; in experiment [1] (setting [11]) it was 5.84. For the same compound, the GI50 in experiment [1] (setting [12]) is reported as 5.81; in experiment [1] (cell line AU565) it was 6.19; in experiment [1] (cell line BT474) it was 6.57; in experiment [1] (cell line BT483), 6.15; in experiment [1] (cell line CAMA1) it was 6.27; in experiment [1] (cell line HCC38), 6.77. Also, the GI50 in experiment [1] (cell line HCC70) turned out to be 6.35; in experiment [1] (cell line HCC1143), 6.28; in experiment [1] (cell line HCC1187), 6.19; in experiment [1] (cell line HCC1395), 5.64; in experiment [1] (cell line HCC1419), 5.88; in experiment [1] (cell line HCC1428), 6.33. Moreover, the GI50 was 5.98 in experiment [1] (cell line HCC1500); 6.16 in experiment [1] (cell line HCC1806); 5.84 in experiment [1] (cell line HCC1937); 5.81 in experiment [1] (cell line HCC1954); 6.46 in experiment [1] (cell line HCC2185); 5.82 in experiment [1] (cell line HCC3153). Further, the GI50 in experiment [1] (cell line LY2) was 5.88; in experiment [1] (cell line MDAMB134V), 6.18; in experiment [1] (cell line MDAMB175V), 5.41; in experiment [1] (cell line MDAMB361), 6.15; in experiment [1] (cell line MDAMB415), 6.14; in experiment [1] (cell line MDAMB453) it was 6.56. The GI50 was determined as 5.57 in experiment [1] (cell line MDAMB468); 5.96 in experiment [1] (cell line SKBR3); 6.22 in experiment [1] (cell line SUM52PE); 6.17 in experiment [1] (cell line SUM149PT); 6.50 in experiment [1] (cell line SUM159PT); 6.51 in experiment [1] (cell line SUM185PE). In addition, the GI50 in experiment [1] (cell line SUM225CWN) was determined as 6.07; in experiment [1] (cell line SUM1315MO), 5.64; in experiment [1] (cell line T47D), 6.06; in experiment [1] (cell line UACC812) it was 5.71; in experiment [1] (cell line ZR75B), 6.41.
